# From patent publication US7807721B2, “Compositions for inhibiting the scent tracking ability of mosquitoes in environmentally defined three dimensional spaces” (Biosensory Inc., priority 1999, dated 2010)
# Legend:
# [1] = test system: adult female Aedes aegypti mosquitoes; assay: Dual-port olfactometer tests of Example 2: test compound + CS vs CS, and Deet vs inhibitor; assay type: in vivo
# From the text: (§1) A triple cage, dual-port olfactometer, illustrated and described in detail by Posey et al. J. Med. Entomol. 35(3), 330-334 (1998), was used to study the responses of 6 to 8 day old, laboratory-reared adult female Aedes aegypti mosquitoes. This system allows mosquitoes to choose between two different stimuli. The olfactometer is constructed of clear acrylic, comprises three test chambers in a tiered configuration, has paired removable sleeves, and mosquito traps on each chamber, and is equipped with a filtered external air supply system that allows precise temperature (+/−0.5° C.) and relative humidity (+/−2%) control. Only one chamber at a time was used for the tests. Outside air was conditioned prior to entry through the choice ports, the mosquito trap, and the olfactometer by passing through a series of charcoal filters and then heated and humidified, if necessary. One hour before initiation of tests, about 75 female Ae. aegypti mosquitoes were aspirated into the olfactometer chamber and allowed to acclimatize for that one hour before testing. Test compounds were placed into test ports upwind of the traps and olfactometer chamber. A completely randomized design was used for cage position. Competitive tests were conducted. In these competitive tests, the inhibiting compound was placed into one of the ports (treatment port); the second port (check port) had the same apparatus but no chemical inhibiting compound. In these tests, inhibiting compounds were presented in glass Pyrex petri dishes (60×15 mm) that had been cleaned and sterilized in a vacuum oven and then handled only with gloves to minimize any chance of contamination and placed into one port (Treatment Port) along with another petri dish containing 500 μL of Clara Sludge (CS), a synthetic human attractant. The other port (Check Port) contained an untreated petri with no inhibiting compound and a second petri dish containing 500 μL CS. Various concentrations (25, 100, 250, 500 and 1000 μL) of the compounds were used in these tests. Each test was conducted for a period of 3 minutes; the number of mosquitoes trapped in the baited ports, and those remaining in the cage, were counted. The data are then presented as a percentage of total mosquitoes in the cage that were attracted to each port and the percentage of mosquitoes remaining in the cage (i.e., not attracted to either port). Tests identical to that described in Example 1 were conducted with test compounds when employed together with the synthetic human attractant (CS) in a port. The test combinations were: • (1) CS vs. CS (comparison) • (2) dehydrolinalool+CS vs. CS • (3) linalool+CS vs. CS Also for comparison purposes, a known topical mosquito repellent, Deet, namely N,N-diethyl-3-methylbenzamide, was employed to compare to linalool and to dehydrolinalool. Each test compound was tested at 100, 250 and 500 μL. The results are again presented as percent mosquitoes attracted to Ports 1 or 2 or not attracted to either port.
# [2] = test system: adult female Aedes aegypti mosquitoes; assay: Competitive tests in triple cage, dual-port olfactometer: inhibitor + Clara Sludge (CS) human attractant port vs CS-only port; assay type: in vivo; conditions: for % Mosquitoes Entering Treatment Port (Inhibitor Port): 3 min test; for % Mosquitoes Entering Control Port (Human Scent Port): control port 500 μL CS only; for % Mosquitoes Entering Control Port (Human Scent Port) / % Mosquitoes Remaining in Cage: 3 min
# From the text: as §1, with “port).” for “port). Tests identical to that described in Example 1 were conducted with test compounds when employed together with the synthetic human attractant (CS) in a port. The test combinations were: • (1) CS vs. CS (comparison) • (2) dehydrolinalool+CS vs. CS • (3) linalool+CS vs. CS Also for comparison purposes, a known topical mosquito repellent, Deet, namely N,N-diethyl-3-methylbenzamide, was employed to compare to linalool and to dehydrolinalool. Each test compound was tested at 100, 250 and 500 μL. The results are again presented as percent mosquitoes attracted to Ports 1 or 2 or not attracted to either port.”
# [3] = 100 micro liter, Port 1 Deet vs Port 2 linalool
# [4] = 100 micro liter, Port 1 test compound vs Port 2 human scent
# [5] = 250 micro liter, Port 1 Deet vs Port 2 linalool
# [6] = 250 micro liter, Port 1 test compound vs Port 2 human scent
# [7] = 500 micro liter, Port 1 Deet vs Port 2 linalool
# [8] = 500 micro liter, Port 1 test compound vs Port 2 human scent
structure (smiles),measurement,setting,value
"C=CC(C)(O)CCC=C(C)C (stereo not shown) [Linalool, linalool]",% Mosquitoes Entering Port 2 (linalool),[1]; [3],17.5%
same,% Mosquitoes Remaining in Cage,[1]; [3],26.2%
same,% Mosquitoes Entering Port 1 (test compound + CS),[1]; [4],22.5%
same,% Mosquitoes Entering Port 2 (human scent),[1]; [4],50.7%
same,% Mosquitoes Remaining in Cage,[1]; [4],26.8%
same,% Mosquitoes Entering Port 2 (linalool),[1]; [5],25.7%
same,% Mosquitoes Remaining in Cage,[1]; [5],26.2%
same,% Mosquitoes Entering Port 1 (test compound + CS),[1]; [6],14.9%
same,% Mosquitoes Entering Port 2 (human scent),[1]; [6],56.8%
same,% Mosquitoes Remaining in Cage,[1]; [6],28.4%
same,% Mosquitoes Entering Port 2 (linalool),[1]; [7],23.1%
same,% Mosquitoes Remaining in Cage,[1]; [7],27.3%
same,% Mosquitoes Entering Port 1 (test compound + CS),[1]; [8],25.7%
same,% Mosquitoes Entering Port 2 (human scent),[1]; [8],55.6%
same,% Mosquitoes Remaining in Cage,[1]; [8],18.7%
same,% Mosquitoes Entering Treatment Port (Inhibitor Port),[2]; 25 micro liter test compound + 500 μL CS in treatment port,21.98%
same,% Mosquitoes Entering Control Port (Human Scent Port),[2]; 25 micro liter test compound in treatment port,56.89%
same,% Mosquitoes Remaining in Cage,[2]; 25 micro liter test compound,21.14%
same,% Mosquitoes Entering Treatment Port (Inhibitor Port),[2]; 100 micro liter test compound + 500 μL CS in treatment port,31.3%
same,% Mosquitoes Entering Control Port (Human Scent Port),[2]; 100 micro liter test compound in treatment port,45.61%
same,% Mosquitoes Remaining in Cage,[2]; 100 micro liter test compound,23.08%
same,% Mosquitoes Entering Treatment Port (Inhibitor Port),[2]; 250 micro liter test compound + 500 μL CS in treatment port,16.57%
same,% Mosquitoes Entering Control Port (Human Scent Port),[2]; 250 micro liter test compound in treatment port,47.3%
same,% Mosquitoes Remaining in Cage,[2]; 250 micro liter test compound,36.13%
same,% Mosquitoes Entering Treatment Port (Inhibitor Port),[2]; 500 micro liter test compound + 500 μL CS in treatment port,16.13%
same,% Mosquitoes Entering Control Port (Human Scent Port),[2]; 500 micro liter test compound in treatment port,44.56%
same,% Mosquitoes Remaining in Cage,[2]; 500 micro liter test compound,39.31%
same,% Mosquitoes Entering Treatment Port (Inhibitor Port),[2]; 1000 micro liter test compound + 500 μL CS in treatment port,27.24%
same,% Mosquitoes Entering Control Port (Human Scent Port),[2]; 1000 micro liter test compound in treatment port,44.14%
same,% Mosquitoes Remaining in Cage,[2]; 1000 micro liter test compound,31.3%
same,inhibition of the ability of mosquitoes to locate the human scent (CS),[2]; all tested concentration levels (25-1000 μL),greatly inhibit
